Assay [1] has as its target T1, PfGSK3 (Plasmodium falciparum, UniProt O77344).
T1 construct: gene PF3D7_0312400
T1 sequence (O77344 1-440): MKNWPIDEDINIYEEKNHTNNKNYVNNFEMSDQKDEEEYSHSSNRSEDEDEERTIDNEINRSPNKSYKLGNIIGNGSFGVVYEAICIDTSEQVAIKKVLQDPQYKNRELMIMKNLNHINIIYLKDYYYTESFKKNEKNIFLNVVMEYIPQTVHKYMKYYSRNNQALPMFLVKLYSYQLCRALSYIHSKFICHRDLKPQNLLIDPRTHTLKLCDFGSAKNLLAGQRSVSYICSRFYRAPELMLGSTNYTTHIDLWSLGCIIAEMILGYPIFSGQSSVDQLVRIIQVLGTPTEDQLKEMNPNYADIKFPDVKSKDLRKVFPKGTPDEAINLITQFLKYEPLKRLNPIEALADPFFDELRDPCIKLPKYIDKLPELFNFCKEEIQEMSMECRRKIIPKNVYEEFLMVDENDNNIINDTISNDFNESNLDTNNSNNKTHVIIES
Description: KinaseGlo Plus luminescence ATP consumption (autophosphorylation). The assay is classed as biochemical. To be noted: 30 µM ATP, no peptide substrate; 20 mM MgCl2; pH 7.5; 30 °C.

Assay [2] concerns the target T1, PfGSK3. Description: nanoDSF thermal shift. The format is binding. To be noted: 1 mg/ml protein; 6 mM dATP in Figure 2B; concentration series in supplement; heating 1 °C/min.

As to `Nc1ncnc2c1ncn2[C@@H]1O[C@H](COP(=O)(O)OP(=O)(O)OP(=O)(O)O)[C@@H](O)[C@H]1O` [ATP], the “KinaseGlo Plus luminescence ATP consumption (autophosphorylation)” value on PfGSK3 [1] is on record as “The assay showed the consumption of ATP even in the absence of the substrate peptide”.
For `Nc1ncnc2c1ncn2[C@H]1C[C@H](O)[C@@H](COP(=O)(O)OP(=O)(O)OP(=O)(O)O)O1` [dATP], the Tm entry at PfGSK3 [2] is on record as “dATP stabilizes PfGSK3, suggesting that it binds in the ATP binding pocket”.

Source of the values: PMC8883495, “N-terminal phosphorylation regulates the activity of glycogen synthase kinase 3 from Plasmodium falciparum” (Biochemical Journal, 2022).
